Results: ChEMBL document CHEMBL4699400, “Discovery of a novel kinase hinge binder fragment by dynamic undocking” (RSC Med Chem, 2020)
The source made the active and inactive calls. No cut-off for these calls is given here.

Legend:
[1] = molecular target: T1, Maternal embryonic leucine zipper kinase (Homo sapiens, UniProt Q14680); assay: Binding affinity to human N-terminal His-tagged MELK (1 to 337 residues) expressed in Escherichia coli BL21 pLysS at 50 uM by STD-NMR analysis
Target sequence in this assay (Q14680 whole entry, looked up, the tested form may be a part): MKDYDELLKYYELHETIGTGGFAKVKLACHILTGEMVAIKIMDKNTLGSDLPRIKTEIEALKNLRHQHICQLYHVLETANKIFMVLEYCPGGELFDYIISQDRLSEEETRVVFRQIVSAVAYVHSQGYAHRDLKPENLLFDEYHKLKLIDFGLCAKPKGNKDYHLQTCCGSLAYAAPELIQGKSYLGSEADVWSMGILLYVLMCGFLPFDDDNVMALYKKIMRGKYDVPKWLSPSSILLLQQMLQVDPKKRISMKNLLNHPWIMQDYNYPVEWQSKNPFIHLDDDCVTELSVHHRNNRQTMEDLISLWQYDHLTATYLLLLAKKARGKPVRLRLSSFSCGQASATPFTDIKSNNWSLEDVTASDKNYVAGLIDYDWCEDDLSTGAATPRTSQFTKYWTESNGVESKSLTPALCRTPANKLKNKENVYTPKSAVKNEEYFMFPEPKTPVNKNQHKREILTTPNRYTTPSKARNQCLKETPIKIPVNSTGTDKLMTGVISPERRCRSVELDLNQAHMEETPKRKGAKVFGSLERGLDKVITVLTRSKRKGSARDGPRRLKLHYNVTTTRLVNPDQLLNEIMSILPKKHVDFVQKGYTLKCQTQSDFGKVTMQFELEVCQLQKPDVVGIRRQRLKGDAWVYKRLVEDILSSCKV

[2] = molecular target: T1, Maternal embryonic leucine zipper kinase; assay: Displacement of kinase tracer 236 from human N-terminal His-tagged MELK (1 to 337 residues) expressed in Escherichia coli BL21 pLysS by microscale thermophoresis assay
Target sequence in this assay (Q14680 whole entry, the tested form may be a part): as the sequence (Q14680 whole entry, looked up, the tested form may be a part) above

Q: How did the Activity [1] turn out when Nc1cccc2cc[nH]c(=O)c12 was run?
A: Active

Q: What about the EC50 [2] of the same compound?
A: 21.1 µM

Q: And the Ki [2]?
A: 5.47 µM
